Results as given in patent publication US9340559B2, “Proteasome inhibitor delanzomib for use in the treatment of lupus” (Cephalon, Inc., priority 2011, dated 2016).

Assays:
MRL/lpr mice [1] = assay: Survival / mortality, MRL/lpr mice (Example 1); settings: for EOS survival, true EOS mouse percentage from starting population: vehicle 92
Experimental: Six week old lupus-prone, female, MRL/lpr (Jackson Labs, #000485) and non-lupus prone control MRL/MpJ (Jackson Labs, #000486) mice are obtained from Jackson Laboratories (Bar Harbor, Me.) at 6-weeks of age. All mice are maintained on a 24 hour light/dark cycle, with food and water available ad libitum. All experimental animal procedures are approved by and in accordance to the regulations of the Institutional Animal Care and Use Committee (IACUC) of Cephalon, Inc; approved IACUC protocol #03-040 and #03-03-041.
Due to this impaired tolerance mechanism, a percentage of all T and B cells that enter the periphery have a high likelihood of responding to self protein/tissues and thus initiate autoimmunity early in life. The MRL/lpr model mice develop several chronic inflammatory disease-like symptoms that are characteristic of early and late lupus including the generation of anti-nuclear antibodies, arthritis, dermatological manifestations, immunocomplex-mediated glomerulonephritis leading to proteinuria and eventual death. Lesser characterized phenomenon are CNS and cardiac manifestations, both of which are more common in humans. […] Mortality is higher in the females and occurs around 25 weeks of age, renal disease includes glomerulonephritis, glomerular infiltrates, sclerosis and vasculitis. Both splenomegaly and lymphomegaly associated with dermatitis can also be observed.
MRL/lpr mice are first randomized, initial bleeds collected, and body weights recorded for baseline measurements (FIG. 1). All mice are individually ear tagged and are monitored throughout the entire experiment (e.g., “Group#-Cage letter-Mouse#”, so “3B5”=Group 3 (G3), cage B, mouse #5). Mice are age-matched and treatment started at 6-8 weeks of age. Cheek bleeds and urine collection continues weekly throughout the experiment. Mice are individually tracked for several parameters including cytokine and ANA levels, proteinuria, body mass, lymphomegaly, general health, and mortality. All parameters are evaluated bi-monthly except mortality which is monitored daily. All groups consist of a minimum of at least 10-12 mice per group. Ex vivo experiments include flow cytometry analyses for plasma cells, serum complement C3 and ANA levels; urine protein and leukocytes, serum cytokine profiling, renal histo pathology, and determination of compound levels (pharmacokinetics (PK)) in the spleen, kidney and plasma. Mice are tracked on an individual basis. For all data, mice are grouped into populations and data graphed as mean±SEM. End-stage readouts are analyzed as described in the MATERIALS AND METHODS section (above) and in FIG. 1.
Vehicle alone is provided orally twice weekly (p.o.). Both proteasome inhibitors are suspended in the vehicle solution. Bi-monthly bleeds and urine are collected and frozen at […] until assayed. End analyses include kidney histology, splenocyte B-cell Elispots, flow cytometry for B and T cell populations, PD markers, serum cytokines, antibody and complement levels. In addition, urine proteinuria is determined for all animals.
In group two (G2), COMPOUND A was administered at a dose of 3 mg/kg iv twice weekly. In group three (G3), COMPOUND A was administered at a dose of 10 mg/kg p.o. twice weekly. […] In the new group five (G5), bortezomib was administered at a dose of 0.3 mg/kg iv twice weekly. Dexamethasone was administered at a dose of 1.5 mg/kg/2d (M, W, F) ip. Vehicle was 3% DMSO/10% Solutol/87% PBS. In those instances in which mice could not be injected via the iv route, agents were administered ip as noted in Table 1.

MRL/lpr mice [2] = assay: Antinuclear antibody (ANA) ELISA (anti-chromatin, anti-Smith Ag, anti-dsDNA IgG), serum of MRL/lpr mice; assay type: in vivo, mouse
Excerpt: For all ANA ELISA assays, values below the limit of detection set by the lowest point along the standard or set by the manufacturer are considered out of range and are not estimated, but assumed the lowest point along the standard curve for that particular assay.

NZM mice [3] = assay: Survival, NZM lupus nephritis model, ip dosing (Example 2); assay type: in vivo, mouse
NZM mice [4] = assay: Body weight progression, NZM mice (Example 2); assay type: in vivo, mouse
NZM mice [5] = assay: Antinuclear antibody (ANA) ELISA (anti-chromatin, anti-Smith Ag, anti-dsDNA), serum of NZM mice (Example 2); assay type: in vivo, mouse
NZM mice [6] = assay: Serum C3 complement ELISA, NZM mice (Example 2)

What does the source list for C[C@@H]1C[C@H]2[C@@H]3CCC4=CC(=O)C=C[C@]4(C)[C@@]3(F)[C@@H](O)C[C@]2(C)[C@@]1(O)C(=O)CO [dexamethasone, Dexamethasone, reference compound]?
EOS survival, true EOS mouse percentage from starting population (MRL/lpr mice [1]; G6: 1.5 mg/kg ip, 3× wk): 83%; ANA AUC Smith Ag, percent change vs vehicle (MRL/lpr mice [2]; G6: 1.5 mg/kg ip, 3× wk): −45%; ANA AUC chromatin, percent change vs vehicle (MRL/lpr mice [2]; G6: 1.5 mg/kg ip, 3× wk): −47%; ANA AUC dsDNA, percent change vs vehicle (MRL/lpr mice [2]; G6: 1.5 mg/kg ip, 3× wk): −59%; EOS survival, percent live mice from original number (NZM mice [3]; G5 1.5 mg/kg ip, 3× wk): 10%; Body mass AUC, percent change vs vehicle (NZM mice [4]; G5 1.5 mg/kg ip, 3× wk): −1%; ANA Smith Ag AUC, percent change vs vehicle (NZM mice [5]; G5 1.5 mg/kg ip, 3× wk): −56%; ANA chromatin AUC, percent change vs vehicle (NZM mice [5]; G5 1.5 mg/kg ip, 3× wk): −8%; ANA dsDNA AUC, percent change vs vehicle (NZM mice [5]; G5 1.5 mg/kg ip, 3× wk): −19%; Serum C3 complement AUC, percent change vs vehicle (NZM mice [6]; G5 1.5 mg/kg ip, 3× wk): 45%; p, serum C3 complement levels vs G6 Bortezomib 0.3 mg/kg 2× wk ip (NZM mice [6]; G8 1.5 mg/kg 3× wk ip): p < 0.05; p, serum C3 complement levels vs G7 CTX 50 mg/kg 1× wk ip (NZM mice [6]; G8 1.5 mg/kg 3× wk ip): p < 0.01

For CC(C)C[C@H](NC(=O)[C@@H](NC(=O)c1cccc(-c2ccccc2)n1)[C@@H](C)O)B(O)O [COMPOUND A, [(1R)-1-[[(2S,3R)-3-hydroxy-2-[6-phenyl-pyridine-2-carbonyl)amino]-1-oxobutyl]amino]-3-methylbutylboronic acid], which “increase in survival over that of vehicle” value (from here on “increase in survival”) (MRL/lpr mice [1]; 0.3 mg/kg iv twice weekly regimen (so in the source)) is on record?
The value was 8.4%.

And the “increase in survival” value (MRL/lpr mice [1]; 0.3 mg/kg once weekly regimen (so in the source))?
Its value is 5%.

What about the “increase in survival” value (MRL/lpr mice [1]; 10 mg/kg oral, twice weekly regimen) of the same molecule?
Its value is 8.4%.

And the “EOS survival, true EOS mouse percentage from starting population” value (from here on “EOS survival, true EOS mouse percentage”) (MRL/lpr mice [1]; G1: 3 mg/kg iv, 1× wk)?
The value was 87%.

And the “EOS survival, true EOS mouse percentage” value (MRL/lpr mice [1]; G2: 3 mg/kg iv, 2× wk)?
Its value is 100%.

And the “EOS survival, true EOS mouse percentage” value (MRL/lpr mice [1]; G3: 10 mg/kg po, 2× wk)?
Its value is 100%.

What about the “animal mortality (mice dead out of total)” value (MRL/lpr mice [1]; initial G1 dose 4 mg/kg iv once weekly, at day 71) of the same molecule?
Its value is 4 out of 15.

And the “ANA AUC Smith Ag, percent change vs vehicle” value (MRL/lpr mice [2]; G1: 3 mg/kg iv, 1× wk)?
Its value is −96%.

What about the “ANA AUC chromatin, percent change vs vehicle” value (MRL/lpr mice [2]; G1: 3 mg/kg iv, 1× wk) of the same molecule?
The value was −94%.

And the “ANA AUC dsDNA, percent change vs vehicle” value (MRL/lpr mice [2]; G1: 3 mg/kg iv, 1× wk)?
Its value is −91%.

And the “ANA AUC Smith Ag, percent change vs vehicle” value (MRL/lpr mice [2]; G2: 3 mg/kg iv, 2× wk)?
Its value is −96%.

And the “ANA AUC chromatin, percent change vs vehicle” value (MRL/lpr mice [2]; G2: 3 mg/kg iv, 2× wk)?
The value was −94%.

And the “ANA AUC dsDNA, percent change vs vehicle” value (MRL/lpr mice [2]; G2: 3 mg/kg iv, 2× wk)?
Its value is −95%.

And the “ANA AUC Smith Ag, percent change vs vehicle” value (MRL/lpr mice [2]; G3: 10 mg/kg po, 2× wk)?
Its value is −94%.

And the “ANA AUC chromatin, percent change vs vehicle” value (MRL/lpr mice [2]; G3: 10 mg/kg po, 2× wk)?
The value was −91%.

What about the “ANA AUC dsDNA, percent change vs vehicle” value (MRL/lpr mice [2]; G3: 10 mg/kg po, 2× wk) of the same molecule?
The value was −37%.

What about the “anti-Smith Ag IgG ANA level decrease vs vehicle at EOS” value (shortened to “anti-Smith Ag IgG ANA level decrease”) (MRL/lpr mice [2]; Group 1) of the same molecule?
Its value is 97%.

What about the “anti-chromatin IgG level reduction vs vehicle” value (MRL/lpr mice [2]; Group 1) of the same molecule?
The value was 89%.

What about the “anti-dsDNA IgG ANA decrease vs vehicle” value (MRL/lpr mice [2]; Group 1 (iv)) of the same molecule?
The value was 80%.

What about the “anti-Smith Ag IgG ANA level decrease” value (MRL/lpr mice [2]; Group 2) of the same molecule?
Its value is 100%.

What about the “anti-chromatin IgG level reduction vs vehicle” value (MRL/lpr mice [2]; Group 2) of the same molecule?
The value was 98%.

What about the “anti-dsDNA IgG ANA decrease vs vehicle” value (MRL/lpr mice [2]; Group 2 (iv)) of the same molecule?
Its value is 84%.

What about the “anti-Smith Ag IgG ANA level decrease” value (MRL/lpr mice [2]; Group 3) of the same molecule?
Its value is 86%.

And the “anti-chromatin IgG level reduction vs vehicle” value (MRL/lpr mice [2]; Group 3)?
Its value is 79%.

What about the “animals remaining at the end of the study (day 310)” value (NZM mice [3]; COMPOUND A treatment groups, vehicle 45%) of the same molecule?
Its value is 100%.

What about the “EOS survival, percent live mice from original number” value (NZM mice [3]; G1 3 mg/kg ip, 1× wk) of the same molecule?
The value was 100%.

And the “survival increase relative to vehicle” value (NZM mice [3]; G1: 3 mg/kg ip once per week)?
The value was 55%.

And the “EOS survival, percent live mice from original number” value (NZM mice [3]; G2 3 mg/kg ip, 2× wk)?
Its value is 91%.

What about the “survival increase relative to vehicle” value (NZM mice [3]; G2: 3 mg/kg ip twice weekly) of the same molecule?
The value was 46%.

What about the “mice still alive at day 56” value (NZM mice [3]; both treatment groups of the substance) of the same molecule?
The value was 100%.

What about the “Body mass AUC, percent change vs vehicle” value (NZM mice [4]; G1 3 mg/kg ip, 1× wk) of the same molecule?
The value was “+9%”.

And the “body weight increase compared to vehicle” value (NZM mice [4]; G1: 3 mg/kg ip once per week)?
The value was 9%.

And the “Body mass AUC, percent change vs vehicle” value (NZM mice [4]; G2 3 mg/kg ip, 2× wk)?
Its value is “+10%”.

And the “body weight increase compared to vehicle” value (NZM mice [4]; G2: 3 mg/kg ip twice weekly)?
The value was 10%.

What about the “ANA Smith Ag AUC, percent change vs vehicle” value (NZM mice [5]; G1 3 mg/kg ip, 1× wk) of the same molecule?
Its value is −88%.

What about the “ANA chromatin AUC, percent change vs vehicle” value (NZM mice [5]; G1 3 mg/kg ip, 1× wk) of the same molecule?
Its value is −63%.

What about the “ANA dsDNA AUC, percent change vs vehicle” value (NZM mice [5]; G1 3 mg/kg ip, 1× wk) of the same molecule?
The value was −21%.

And the “ANA Smith Ag AUC, percent change vs vehicle” value (NZM mice [5]; G2 3 mg/kg ip, 2× wk)?
The value was 8%.

What about the “ANA chromatin AUC, percent change vs vehicle” value (NZM mice [5]; G2 3 mg/kg ip, 2× wk) of the same molecule?
The value was −79%.

And the “ANA dsDNA AUC, percent change vs vehicle” value (NZM mice [5]; G2 3 mg/kg ip, 2× wk)?
Its value is −68%.

What about the “serum anti-dsDNA Ab decrease vs vehicle” value (NZM mice [5]; once weekly COMPOUND A) of the same molecule?
Its value is 21%.

And the “serum anti-Smith Ag Ab decrease vs vehicle” value (NZM mice [5]; once weekly COMPOUND A (3 mg/kg ip))?
Its value is 88%.

And the “serum anti-chromatin Ab decrease vs vehicle” value (NZM mice [5]; twice weekly (3 mg/kg ip))?
The value was 79%.

What about the “serum anti-dsDNA Ab decrease vs vehicle” value (NZM mice [5]; twice weekly COMPOUND A) of the same molecule?
The value was 68%.

What about the “serum anti-chromatin Ab decrease vs vehicle” value (NZM mice [5]; weekly (3 mg/kg ip)) of the same molecule?
The value was 63%.

And the “p, serum C3 complement levels vs G6 Bortezomib 0.3 mg/kg 2× wk ip” value (NZM mice [6]; G1 3 mg/kg 1× wk ip)?
Its value is “p < 0.01”.

What about the “p, serum C3 complement levels vs G7 CTX 50 mg/kg 1× wk ip” value (NZM mice [6]; G1 3 mg/kg 1× wk ip) of the same molecule?
The value was “p < 0.001”.

What about the “p, serum C3 complement levels vs G9 Vehicle 2× wk po” value (NZM mice [6]; G1 3 mg/kg 1× wk ip) of the same molecule?
The value was “p < 0.05”.

And the “Serum C3 complement AUC, percent change vs vehicle” value (NZM mice [6]; G1 3 mg/kg ip, 1× wk)?
Its value is 45%.

What about the “p, serum C3 complement levels vs G7 CTX 50 mg/kg 1× wk ip” value (NZM mice [6]; G2 3 mg/kg 2× wk ip) of the same molecule?
Its value is “p < 0.05”.

What about the “Serum C3 complement AUC, percent change vs vehicle” value (NZM mice [6]; G2 3 mg/kg ip, 2× wk) of the same molecule?
Its value is 32%.

And the “serum C3 increase above vehicle” value (NZM mice [6]; once weekly)?
The value was 45%.
